{"source": "patent US11154063B2", "about": "“Method for producing a bacteriostatic and fungistatic additive in masterbatch for application in plastics” (SERVICIOS ADMINISTRATIVOS PEÑOLES, S.A. DE C.V., priority 2013, dated 2021)", "system": "S. aureus", "assay": "Inhibition in RP 340 polypropylene copolymer after aging in UV chamber", "type": "cell-based", "conditions": "after 120 h of aging in UV chamber", "data": [{"smiles": "Oc1cc(Cl)ccc1Oc1ccc(Cl)cc1Cl", "note": "[triclosan]", "values": [{"measurement": "After 120 h of aging Inhibition %.", "value": "starts decreasing its antimicrobial effectiveness"}]}]}
